The text below walks through data of ChEMBL document CHEMBL1201862, “PubChem BioAssay data set” (2004).

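Dose response: 5 concentrations. Exposure: 48 h. Format: 96-well plates. Endpoint: linear interpolation; highest concentration if not reached. The concentration for 50% growth inhibition is given as GI50.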 Active and inactive are the calls of the source. Rule as the data show it: active = GI50 up to about 1.1 µM and inactive = higher.

Common to all, as to test: inhibition of tumour cell growth, NCI panel, 48 h
Assay [1] deals with BT-549.
Assay [2] has as its system HL-60.
Assay [3] relates to HOP-62.
The test system of assay [4] is HT-29.
Assay [5] deals with IGROV-1.
The subject of assay [6] is LOX IMVI.
The subject of assay [7] is MCF7.
Assay [8] deals with MDA-N.
Assay [9] relates to NCI-H226.
Assay [10] has as its system OVCAR-3.
For assay [11], the system named is OVCAR-8.
The subject of assay [12] is RPMI-8226.
The test system of assay [13] is RXF 393.
The test system of assay [14] is SF-539.
Assay [15] relates to SK-MEL-28.
The subject of assay [16] is SK-OV-3.
The test system of assay [17] is SN12C.
Assay [18] has as its system TK-10.
Assay [19] deals with UACC-257.

As for `O=C1N=C(Nc2ccccc2Cl)N/C1=C\c1ccc(Cl)cc1Cl`, the GI50 in [1] is > 100 µM (inactive); in [2] it was 0.122 µM (active); in assay [3] it was 62.4 µM (inactive); in [4], > 100 µM (inactive); in assay [5] it was 79.4 µM (inactive); in assay [6] it was > 100 µM (inactive). Further, the GI50 is 31.4 µM (inactive) in assay [7]; 8.11 µM (inactive) in assay [8]; 25.1 µM (inactive) in assay [9]; 66.1 µM (inactive) in [10]; 38.3 µM (inactive) in assay [11]; > 100 µM (inactive) in assay [12]. Also, the GI50 was 15.5 µM (inactive) in assay [13]; 37.8 µM (inactive) in assay [14]; 99.8 µM (inactive) in assay [15]; > 100 µM (inactive) in assay [16]; 25 µM (inactive) in assay [17]; > 100 µM (inactive) in assay [18]. Besides, the GI50 in assay [19] is 75.3 µM (inactive).
For `C=CCC1(C)CCCN(Cc2ccccc2)C1=O` (stereo not drawn), the GI50 is > 10 µM (inactive) in assay [1]; > 10 µM (inactive) in assay [2]; > 10 µM (inactive) in [3]; > 10 µM (inactive) in assay [4]; 0.863 µM (active) in [5]; > 10 µM (inactive) in [6]. In addition, the GI50 in [7], in assay [8], in assay [9], in assay [10], in assay [11] and in assay [12] was > 10 µM (inactive) each time. In addition, the GI50 in assay [13], in assay [14], in assay [15], in assay [16], in [17] and in [18] was > 10 µM (inactive) throughout. Further, in [19], the GI50 was > 10 µM (inactive).
Consider `Cc1cc2ccccc2n1CC(=O)N1CCCC1`, for which the GI50 in [1], in [2], in assay [3], in assay [4], in [5] and in assay [6] was > 100 µM (inactive) in each case. Also, the GI50 in [7], in assay [8], in [9], in assay [10], in assay [11] and in assay [12] was > 100 µM (inactive) throughout. The GI50 in assay [13], in assay [14], in assay [15], in assay [16], in [17] and in assay [18] was > 100 µM (inactive) each time. Moreover, the GI50 in [19] was > 100 µM (inactive).
With `COc1cc(/C=N/n2c(-c3ccccc3)n[nH]c2=O)cc(OC)c1OC`, the GI50 is 2.13 µM (inactive) in [1]; 0.518 µM (active) in assay [2]; 4.93 µM (inactive) in [3]; 4.39 µM (inactive) in [4]; 2.43 µM (inactive) in assay [5]; 3.22 µM (inactive) in assay [6]. Besides, the GI50 in assay [7] is 1.3 µM (inactive); in assay [8] it was 0.174 µM (active); in assay [9], > 41.3 µM (inactive); in assay [10], 4.63 µM (inactive); in assay [11], 4.81 µM (inactive); in [12], 1.38 µM (inactive). Further, the GI50 in assay [13] is 4.94 µM (inactive); in assay [14] it was 1.96 µM (inactive); in [15], > 28 µM (inactive); in assay [16], 2.56 µM (inactive); in [17], 7.67 µM (inactive); in assay [18], 4.17 µM (inactive). Also, in assay [19], the GI50 was > 100 µM (inactive).
For the compound `COc1ccc2c(c1)CCC(CN1CCN(CCOC(c3ccc(F)cc3)c3ccc(F)cc3)CC1)=C2`, the GI50 in [1] is 13.6 µM (inactive); in assay [2], 5.53 µM (inactive); in assay [3], 33.9 µM (inactive); in [4] it was 4.53 µM (inactive); in assay [5], 28.1 µM (inactive); in assay [6], 15.6 µM (inactive). For the same compound, the GI50 in assay [7] was 13.6 µM (inactive); in assay [8], 11.8 µM (inactive); in assay [9], 13 µM (inactive); in assay [10], 16.9 µM (inactive); in assay [11], 18.8 µM (inactive); in [12] it was 4.52 µM (inactive). Besides, the GI50 is 11.2 µM (inactive) in [13]; 13 µM (inactive) in [14]; 21.3 µM (inactive) in [15]; > 100 µM (inactive) in [16]; 11.1 µM (inactive) in assay [17]; 14.3 µM (inactive) in assay [18]. Also, the GI50 in [19] is 9.18 µM (inactive).
Turning to `O=C1Nc2c(Cl)cc(Cl)cc2/C1=N/Nc1ccccc1[N+](=O)[O-]`, the GI50 in assay [1] is 9.68 µM (inactive); in assay [2], 16.6 µM (inactive); in assay [3], 5.47 µM (inactive); in [4], > 100 µM (inactive); in assay [5], 23.8 µM (inactive); in assay [6], 84.5 µM (inactive). Further, the GI50 in [7] is > 100 µM (inactive); in [8], > 100 µM (inactive); in assay [9] it was 49 µM (inactive); in [10], 50.7 µM (inactive); in [11], 30.3 µM (inactive); in assay [12], > 100 µM (inactive). Also, the GI50 in [13] is 14.2 µM (inactive); in assay [14] it was 13 µM (inactive); in [15] it was 75.7 µM (inactive); in [16], 30.1 µM (inactive); in assay [17], 85.9 µM (inactive); in assay [18], 22.6 µM (inactive). For the same compound, the GI50 in assay [19] was > 100 µM (inactive).
As for `CC(=O)O[C@H]1C[C@H](O[C@H]2[C@@H](O)C[C@H](O[C@H]3[C@@H](O)C[C@H](O[C@H]4CC[C@@]5(C)[C@H](CC[C@@H]6[C@@H]5CC[C@]5(C)[C@@H](C7=CC(=O)OC7)CC[C@]65O)C4)O[C@@H]3C)O[C@@H]2C)O[C@H](C)[C@H]1O[C@@H]1O[C@H](CO)[C@@H](O)[C@H](O)[C@H]1O`, the GI50 in assay [1] is < 0.0167 µM (active); in [2], 0.0149 µM (active); in assay [3], < 0.01 µM (active); in assay [4], 0.0144 µM (active); in assay [5], < 0.01 µM (active); in assay [6], < 0.0159 µM (active). In addition, the GI50 in assay [7] is 0.013 µM (active); in assay [8], 0.0398 µM (active); in [9], 0.103 µM (active); in assay [10], < 0.01 µM (active); in [11] it was 0.0275 µM (active); in assay [12] it was 0.0373 µM (active). Moreover, the GI50 was 0.0288 µM (active) in assay [13]; < 0.014 µM (active) in assay [14]; 0.136 µM (active) in [15]; 0.0395 µM (active) in assay [16]; 0.0243 µM (active) in [17]; 0.0174 µM (active) in assay [18]. Further, in [19], the GI50 was 0.0726 µM (active).
